From patent US20230093099A1, “COMPOUNDS AND METHODS OF TREATING CANCERS” (CULLGEN (SHANGHAI), INC., priority 2019, published 2023)
pIC50: −log10 of the molar value.

These compounds were tested on RS4;11 cells (assay: Cell viability assay (CellTiter-Glo) in RS4;11 cells). Details: Homo sapiens, 72 h; RS4;11 ALL cells treated for three days; read-out: cell viability inhibition IC50.
Format: cell-based
Method: Specific exemplary heterobifunctional compounds were first characterized using cell viability assays. RS4;11 ALL cells were treated with bifunctional degraders for three days. The IC50 values ranged from 2 nM to over 10 uM.
MV4;11, RS4;11, Kasumi-1, HEL and other cells were treated with NVP-BSK805, TG101209 or selected degraders for 3 days at indicated concentrations following a 3-fold serial dilution.
HEL, RS4;11, MV4;11, Kasumi-1 and other cells were cultured at 37° C. with 5% CO2 in RPMI 1640 or DMEM Medium supplemented with 10% fetal bovine serum. Cells were authenticated using the short tandem repeat (STR) assays. Mycoplasma test results were negative.
Cells were seeded at a density of 5000 cells per well in 96-well assay plates and treated with test compounds following a 8-point or 12-point 3-fold serial dilution. Three days later, cell viability was determined using the CellTiter-Glo assay kit according to the manufacturer's instructions. The dose-response curves were determined and IC50 values were calculated using the GraphPad Prism software following a nonlinear regression (least squares fit) method.

pIC50 | Structure (SMILES)
> 7.00 | O=C1CCC(N2C(=O)c3ccc(NCCCCCCC(=O)N4CCC(n5cc(-c6cnc7cccc(-c8cc(F)c(CN9CCOCC9)c(F)c8)c7n6)cn5)CC4)cc3C2=O)C(=O)N1 (stereo not drawn) [JA-188, 5-((7-(4-(4-(8-(3,5-difluoro-4-(morpholinomethyl)phenyl)quinoxalin-2-yl)-1H-pyrazol-1-yl)piperidin-1-yl)-7-oxoheptyl)amino)-2-(2,6-dioxopiperidin-3-yl)isoindoline-1,3-dione]

Same assay, conditions: Homo sapiens, 72 h; RS4;11 cells; cell viability, 3 days, CellTiter-Glo; read-out: IC50

pIC50 | Structure (SMILES)
5.85 | O=C(CN1CCC(n2cc(-c3cnc4cccc(-c5cc(F)c(CN6CCOCC6)c(F)c5)c4n3)cn2)CC1)NCCCNc1cccc2c1C(=O)N(C1CCC(=O)NC1=O)C2=O (stereo not drawn) [JA-154, 2-(4-(4-(8-(3,5-Difluoro-4-(morpholinomethyl)phenyl)quinoxalin-2-yl)-1H-pyrazol-1-yl)piperidin-1-yl)-N-(3-((2-(2,6-dioxopiperidin-3-yl)-1,3-dioxoisoindolin-4-yl)amino)propyl)acetamide]
< 5.00 | Cc1ncsc1-c1ccc(CNC(=O)[C@@H]2C[C@@H](O)CN2C(=O)[C@@H](NC(=O)CCOCCOCCOCCC(=O)N2CCC(n3cc(-c4cnc5cccc(-c6cc(F)c(CN7CCOCC7)c(F)c6)c5n4)cn3)CC2)C(C)(C)C)cc1 [JA-050, (2S,4R)-1-[(2S)-2-[3-[2-[2-[3-[4-[4-[8-[3,5-Difluoro-4-(morpholinomethyl)phenyl]quinoxalin-2-yl]pyrazol-1-yl]-1-piperidyl]-3-oxo-propoxy]ethoxy]ethoxy]propanoylamino]-3,3-dimethyl-butanoyl]-4-hydroxy-N-[[4-(4-methylthiazol-5-yl)phenyl]methyl]pyrrolidine-2-carboxamide]
< 5.00 | CS(=O)(=O)c1ccc(-c2cccc3nc(Nc4ccc(N5CCN(C(=O)CNc6ccc7c(c6)C(=O)N(C6CCC(=O)NC6=O)C7=O)CC5)cc4)nn23)cc1 (stereo not drawn) [JA-194, 2-(2,6-Dioxopiperidin-3-yl)-5-((2-(4-(4-((5-(4-(methylsulfonyl)phenyl)-[1,2,4]triazolo[1,5-a]pyridin-2-yl)amino)phenyl)piperazin-1-yl)-2-oxoethyl)amino)isoindoline-1,3-dione]
< 5.00 | O=C(CN1CCC(n2cc(-c3cnc4cccc(-c5cc(F)c(CN6CCOCC6)c(F)c5)c4n3)cn2)CC1)NCCOCCOCCOCCOCCOCCNc1ccc2c(c1)C(=O)N(C1CCC(=O)NC1=O)C2=O (stereo not drawn) [JA-173, 2-(4-(4-(8-(3,5-Difluoro-4-(morpholinomethyl)phenyl)quinoxalin-2-yl)-1H-pyrazol-1-yl)piperidin-1-yl)-N-(17-((2-(2,6-dioxopiperidin-3-yl)-1,3-dioxoisoindolin-5-yl)amino)-3,6,9,12,15-pentaoxaheptadecyl)acetamide]
7.16 | O=C1CCC(N2C(=O)c3ccc(NCCCCCCC(=O)N4CCC(n5cc(-c6cnc7cccc(-c8cc(F)c(CN9CCOCC9)c(F)c8)c7n6)cn5)CC4)cc3C2=O)C(=O)N1 (stereo not drawn) [JA-188, 5-((7-(4-(4-(8-(3,5-difluoro-4-(morpholinomethyl)phenyl)quinoxalin-2-yl)-1H-pyrazol-1-yl)piperidin-1-yl)-7-oxoheptyl)amino)-2-(2,6-dioxopiperidin-3-yl)isoindoline-1,3-dione]
< 5.00 | Cc1ncsc1-c1ccc(CNC(=O)[C@@H]2C[C@@H](O)CN2C(=O)[C@@H](NC(=O)CCCCC(=O)N2CCC(n3cc(-c4cnc5cccc(-c6cc(F)c(CN7CCOCC7)c(F)c6)c5n4)cn3)CC2)C(C)(C)C)cc1 [JA-041, (2S,4R)-1-[(2S)-2-[[6-[4-[4-[8-[3,5-Difluoro-4-(morpholinomethyl)phenyl]quinoxalin-2-yl]pyrazol-1-yl]-1-piperidyl]-6-oxo-hexanoyl]amino]-3,3-dimethyl-butanoyl]-4-hydroxy-N-[[4-(4-methylthiazol-5-yl)phenyl]methyl]pyrrolidine-2-carboxamide]
5.46 | O=C1CCC(N2C(=O)c3cccc(NCCOCCOCCOCCOCCC(=O)N4CCC(n5cc(-c6cnc7cccc(-c8cc(F)c(CN9CCOCC9)c(F)c8)c7n6)cn5)CC4)c3C2=O)C(=O)N1 (stereo not drawn) [JA-047, 4-[2-[2-[2-[2-[3-[4-[4-[8-[3,5-Difluoro-4-(morpholinomethyl)phenyl]quinoxalin-2-yl]pyrazol-1-yl]-1-piperidyl]-3-oxo-propoxy]ethoxy]ethoxy]ethoxy]ethylamino]-2-(2,6-dioxo-3-piperidyl)isoindoline-1,3-dione]
< 5.00 | CS(=O)(=O)c1ccc(-c2cccc3nc(Nc4ccc(N5CCN(CC(=O)NCCCNc6ccc7c(c6)C(=O)N(C6CCC(=O)NC6=O)C7=O)CC5)cc4)nn23)cc1 (stereo not drawn) [JA-210, N-(3-((2-(2,6-Dioxopiperidin-3-yl)-1,3-dioxoisoindolin-5-yl)amino)propyl)-2-(4-(4-((5-(4-(methylsulfonyl)phenyl)-[1,2,4]triazolo[1,5-a]pyridin-2-yl)amino)phenyl)piperazin-1-yl)acetamide]
5.83 | Cc1cnc(Nc2ccc(N3CCN(C(=O)CCCNc4cccc5c4C(=O)N(C4CCC(=O)NC4=O)C5=O)CC3)cc2)nc1Nc1cccc(S(=O)(=O)NC(C)(C)C)c1 (stereo not drawn) [JA-008, N-(tert-Butyl)-3-((2-((4-(4-(4-((2-(2,6-dioxopiperidin-3-yl)-1,3-dioxoisoindolin-4-yl)amino)butanoyl)piperazin-1-yl)phenyl)amino)-5-methylpyrimidin-4-yl)amino)benzenesulfonamide]
6.82 | Cc1cnc(Nc2ccc(N3CCN(CC(=O)NCCCCCCNc4ccc5c(c4)C(=O)N(C4CCC(=O)NC4=O)C5=O)CC3)cc2)nc1Nc1cccc(S(=O)(=O)NC(C)(C)C)c1 (stereo not drawn) [JA-245, 2-(4-(4-((4-((3-(N-(tert-butyl)sulfamoyl)phenyl)amino)-5-methylpyrimidin-2-yl)amino)phenyl)piperazin-1-yl)-N-(6-((2-(2,6-dioxopiperidin-3-yl)-1,3-dioxoisoindolin-5-yl)amino)hexyl)acetamide]
< 5.00 | Cc1cnc(Nc2ccc(N3CCN(CC(=O)NCCOCCOCCC(=O)N[C@H](C(=O)N4C[C@H](O)C[C@H]4C(=O)NCc4ccc(-c5scnc5C)cc4)C(C)(C)C)CC3)cc2)nc1Nc1cccc(S(=O)(=O)NC(C)(C)C)c1 [JA-219, (2S,4R)-1-((S)-14-(tert-butyl)-1-(4-(4-((4-((3-(N-(tert-butyl)sulfamoyl)phenyl)amino)-5-methylpyrimidin-2-yl)amino)phenyl)piperazin-1-yl)-2,12-dioxo-6,9-dioxa-3,13-diazapentadecan-15-oyl)-4-hydroxy-N-(4-(4-methylthiazol-5-yl)benzyl)pyrrolidine-2-carboxamide]
6.52 | O=C1CCC(N2C(=O)c3ccc(NCCCCCCN4CCC(n5cc(-c6cnc7cccc(-c8cc(F)c(CN9CCOCC9)c(F)c8)c7n6)cn5)CC4)cc3C2=O)C(=O)N1 (stereo not drawn) [JA-266, 5-((6-(4-(4-(8-(3,5-Difluoro-4-(morpholinomethyl)phenyl)quinoxalin-2-yl)-1H-pyrazol-1-yl)piperidin-1-yl)hexyl)amino)-2-(2,6-dioxopiperidin-3-yl)isoindoline-1,3-dione]
8.42 | O=C1CCC(N2Cc3ccc(CCCCCCC(=O)N4CCC(n5cc(-c6cnc7cccc(-c8cc(F)c(CN9CCOCC9)c(F)c8)c7n6)cn5)CC4)cc3C2=O)C(=O)N1 (stereo not drawn) [JA-269, 3-(6-(7-(4-(4-(8-(3,5-difluoro-4-(morpholinomethyl)phenyl)quinoxalin-2-yl)-1H-pyrazol-1-yl)piperidin-1-yl)-7-oxoheptyl)-1-oxoisoindolin-2-yl)piperidine-2,6-dione]
< 5.00 | CS(=O)(=O)c1ccc(-c2cccc3nc(Nc4ccc(N5CCN(CC(=O)NCCCCCNc6cccc7c6C(=O)N(C6CCC(=O)NC6=O)C7=O)CC5)cc4)nn23)cc1 (stereo not drawn) [JA-113, N-(5-((2-(2,6-Dioxopiperidin-3-yl)-1,3-dioxoisoindolin-4-yl)amino)pentyl)-2-(4-(4-((5-(4-(methylsulfonyl)phenyl)-[1,2,4]triazolo[1,5-a]pyridin-2-yl)amino)phenyl)piperazin-1-yl)acetamide]
< 5.00 | O=C(CN1CCC(n2cc(-c3cnc4cccc(-c5cc(F)c(CN6CCOCC6)c(F)c5)c4n3)cn2)CC1)NCCOCCOCCOCCOCCNc1cccc2c1C(=O)N(C1CCC(=O)NC1=O)C2=O (stereo not drawn) [JA-142, 2-[4-[4-[8-[3,5-Difluoro-4-(morpholinomethyl)phenyl]quinoxalin-2-yl]pyrazol-1-yl]-1-piperidyl]-N-[2-[2-[2-[2-[2-[[2-(2,6-dioxo-3-piperidyl)-1,3-dioxo-isoindolin-4-yl]amino]ethoxy]ethoxy]ethoxy]ethoxy]ethyl]acetamide]
5.67 | CS(=O)(=O)c1ccc(-c2cccc3nc(Nc4ccc(N5CCN(CC(=O)NCCOCCOCCNc6cccc7c6C(=O)N(C6CCC(=O)NC6=O)C7=O)CC5)cc4)nn23)cc1 (stereo not drawn) [JA-115, N-(2-(2-(2-((2-(2,6-Dioxopiperidin-3-yl)-1,3-dioxoisoindolin-4-yl)amino)ethoxy)ethoxy)ethyl)-2-(4-(4-((5-(4-(methylsulfonyl)phenyl)-[1,2,4]triazolo[1,5-a]pyridin-2-yl)amino)phenyl)piperazin-1-yl)acetamide]
< 5.00 | Cc1ncsc1-c1ccc(CNC(=O)[C@@H]2C[C@@H](O)CN2C(=O)[C@@H](NC(=O)COCCNC(=O)CN2CCC(n3cc(-c4cnc5cccc(-c6cc(F)c(CN7CCOCC7)c(F)c6)c5n4)cn3)CC2)C(C)(C)C)cc1 [JA-153, (2S,4R)-1-((S)-2-(2-(2-(2-(4-(4-(8-(3,5-Difluoro-4-(morpholinomethyl)phenyl)quinoxalin-2-yl)-1H-pyrazol-1-yl)piperidin-1-yl)acetamido)ethoxy)acetamido)-3,3-dimethylbutanoyl)-4-hydroxy-N-(4-(4-methylthiazol-5-yl)benzyl)pyrrolidine-2-carboxamide]
